Laboratory results reported in article PMC8463504 (Journal of inorganic biochemistry, 2021).
Read-outs that look alike come from different tables or passages of the source.

How the values were obtained:
His64 = test: other; settings: ferric heme-bound fluoride complex; cited from earlier work
[1] = format: physicochemical; settings: for % folded protein: below pH 4.4; for pKa of acid denaturation: sigmoidal-Boltzmann fit of % folded protein vs pH
HbIII [2] = biological target: T1, HbIII (Phacoides pectinatus, UniProt P41262); test: biochemical
T1 sequence (P41262 1-153): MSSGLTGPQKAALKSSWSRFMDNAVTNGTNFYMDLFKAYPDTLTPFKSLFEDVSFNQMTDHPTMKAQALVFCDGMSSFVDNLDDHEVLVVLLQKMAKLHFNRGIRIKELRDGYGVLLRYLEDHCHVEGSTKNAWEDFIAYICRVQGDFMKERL

HbI [3] = biological target: T2, HbI (Phacoides pectinatus, UniProt P41260); settings: pH 4 to 7 range
T2 sequence (P41260 whole entry): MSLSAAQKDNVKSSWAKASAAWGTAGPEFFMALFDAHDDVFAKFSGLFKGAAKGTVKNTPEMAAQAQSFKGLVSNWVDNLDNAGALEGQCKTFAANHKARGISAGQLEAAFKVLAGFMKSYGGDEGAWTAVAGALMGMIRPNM

HbII [4] = biological target: T3, HbII (Phacoides pectinatus, UniProt P41261); test: biochemical
T3 sequence (P41261 1-151): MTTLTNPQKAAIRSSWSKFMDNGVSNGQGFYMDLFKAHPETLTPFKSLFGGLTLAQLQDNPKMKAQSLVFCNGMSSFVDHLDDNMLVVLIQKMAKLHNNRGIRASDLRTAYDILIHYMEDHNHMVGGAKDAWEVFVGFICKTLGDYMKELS

adult hemoglobin (A-Hb) = adult hemoglobin (A-Hb) (Homo sapiens, UniProt P68871+P69905); test: biochemical; settings: Measured fluoride binding dissociation constant (Kd)
Sequence of adult hemoglobin (A-Hb) (P69905 2-142 limits assumed): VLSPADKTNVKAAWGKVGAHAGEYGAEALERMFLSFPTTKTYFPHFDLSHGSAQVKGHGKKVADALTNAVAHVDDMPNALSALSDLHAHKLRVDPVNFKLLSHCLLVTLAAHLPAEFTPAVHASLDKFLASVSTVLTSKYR
Sequence of adult hemoglobin (A-Hb) (P68871 2-147 limits assumed): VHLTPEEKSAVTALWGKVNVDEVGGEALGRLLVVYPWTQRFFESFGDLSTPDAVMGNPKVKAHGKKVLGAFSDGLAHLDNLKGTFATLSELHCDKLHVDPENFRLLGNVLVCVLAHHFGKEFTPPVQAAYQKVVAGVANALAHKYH

[5] = biological target: horse heart myoglobin (Mb) (Equus caballus, UniProt P68082); test: biochemical
Sequence of horse heart myoglobin (Mb) (P68082 whole entry): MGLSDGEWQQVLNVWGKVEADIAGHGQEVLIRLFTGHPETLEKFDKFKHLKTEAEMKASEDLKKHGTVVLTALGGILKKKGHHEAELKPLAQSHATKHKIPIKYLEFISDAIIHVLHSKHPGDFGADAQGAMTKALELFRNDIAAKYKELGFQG

HbI [6] = biological target: T2, HbI; test: biochemical; settings: Measured fluoride binding dissociation constant (Kd), pH 5.0
HbI [7] = biological target: T2, HbI; settings: cited from earlier work
HbIII [8] = biological target: T1, HbIII; settings: read-out: Equilibrium dissociation constant (Kd), pH 7.5; cited from earlier work
HbII [9] = biological target: T3, HbII; settings: read-out: Equilibrium dissociation constant (Kd), pH 7.5; cited from earlier work
[10] = cited from earlier work
HbI [11] = biological target: T2, HbI; settings: read-out: Equilibrium dissociation constant (Kd), pH 7.5; cited from earlier work
HHMb = settings: read-out: Equilibrium dissociation constant (Kd), pH 7.5; cited from earlier work
HbII [12] = biological target: T3, HbII; settings: read-out: Equilibrium dissociation constant (Kd), pH 7.5; cited from earlier work; remark: listed apart in the source
HbIII [13] = biological target: T1, HbIII; settings: read-out: Equilibrium dissociation constant (Kd), pH 7.5; cited from earlier work; remark: listed apart in the source
[14] = Equilibrium dissociation constant (Kd), pH 7.5
[15] = Measured fluoride binding dissociation constant (Kd), pH 5.0
[16] = Measured fluoride binding dissociation constant (Kd), pH 7.0

## Myoglobin (quoted literature values; species not stated in this article)
His64
  pKa: 5.3–5.7

## A-Hb: Adult hemoglobin purchased from Sigma-Aldrich
[1]
  % folded protein: less than 50%
  pKa of acid denaturation: 4.4

## F [fluoride, sodium fluoride]
HbIII [2]; Apparent Kd from non-linear fit, above pH 12
  Kd: 4000 µM
HbIII [2]; [14]
  Kd: 2900 µM
HbIII [2]; [15]
  Kd: 500 ± 332 µM
HbIII [2]; [16]
  Kd: 3100 ± 370 µM
HbI [3]
  Fluoride affinity in HbI, lower than the other studied heme proteins: about two orders of magnitude
HbII [4]; [14]
  Kd: 3700 µM
HbII [4]; [15]
  Kd: 330 ± 67 µM
HbII [4]; [16]
  Kd: 1000 ± 156 µM
Adult hemoglobin (A-Hb); pH 5.0
  Kd: 9300 ± 5800 µM
Adult hemoglobin (A-Hb); pH 7.0
  Kd: 33000 ± 4000 µM
[5]; Equilibrium dissociation constant (Kd), HHMb, pH 7.5
  Kd: 41000 µM
[5]; Measured fluoride binding dissociation constant (Kd), Mb, pH 5.0
  Kd: 3000 ± 820 µM
[5]; Measured fluoride binding dissociation constant (Kd), Mb, pH 7.0
  Kd: 25000 ± 2800 µM
HbI [6]
  Kd: 100000 ± 61000 µM

## S [H2S, Hydrogen sulfide]
HbI [7]; HbI greater than HbII and HbIII
  Affinity of HbI for H2S relative to HbII and HbIII: 4,000 times
HbI [7]; read-out: Equilibrium dissociation constant (Kd), HbI, pH 7.5
  Kd: 0.0034 µM
HbIII [8]
  Kd: > 16 µM
HbII [9]
  Kd: 14.5 µM
[10]
  pKa (H2S/HS^− equilibrium): 7.0

## O=O [O2, oxygen]
HbI [11]
  Kd: ~0.4 µM
HHMb
  Kd: 1.3 µM
HbII [12]
  Kd: 0.28 µM
HbIII [13]
  Kd: 0.26 µM

B1: Mb: horse heart (methods: horse skeletal muscle) myoglobin purchased from Sigma-Aldrich (protein, UniProt P68082 2-154, looked up)
Myoglobin: GLSDGEWQQVLNVWGKVEADIAGHGQEVLIRLFTGHPETLEKFDKFKHLKTEAEMKASEDLKKHGTVVLTALGGILKKKGHHEAELKPLAQSHATKHKIPIKYLEFISDAIIHVLHSKHPGDFGADAQGAMTKALELFRNDIAAKYKELGFQG
[1]
  % folded protein: less than 50%
  pKa of acid denaturation: 4.4
